The subject of assay [1] is NP-C mice. The experiment in a line: Survival rate of NP-C mice. Particulars: VEGFNP-C mice (brain cell-specific VEGF-overexpressed NP-C mice); cyclodextrin 4000 mg/kg once a week s.c.; compared to NP-C mice given cyclodextrin alone. The format is in vivo. An excerpt: (§1) In Balb/C (Orient, wild type), NPC mutant mice in which an NPC1 gene is deleted (RIKEN, received from Japan, NP-C mice; a weight was smaller than that of normal mice with the same week old, a serious mobility loss was shown from 4 to 6 week old to show tremors and seizures of the limbs, and a lifespan was approximately 9 to 10 weeks), and brain cell-specific VEGF-overexpressed NP-C mice (VEGFNP-C mice; produced through mating of VEGFtg mice overexpressing VEGF in a brain cell-specific promoter (received from University of Heidelberg, Germany, Yaoming Wang et al., (2005)) and NP-C mice, a lifespan was approximately 9 to 10 weeks like the NP-C mice, and brain inflammation and lipid accumulation were alleviated as compared to the NP-C mice), systems thereof were kept by genotyping through PCR. The mice were disposed in a test group by using a block randomization method. In order to eliminate prejudice, […]. All mice tests were approved by Kyungpook National University Institutional Animal Care and Use Committee (IACUC).
(§2) Administration of cyclodextrin (Sigma, H107) and VEGF-overexpressed neural stem cells was performed on a schedule as illustrated in FIG. 1. Specifically, NP-C mice or VEGFNP-C mice were subcutaneously injected with cyclodextrin by 4000 mg/kg from 1 week old. […]

Assay [2] concerns NP-C mice. The experiment in a line: Inflammatory response of the cerebellum by GFAP (astrocyte) staining. It is filed as in vivo. The note with it: 10-week-old. The method, then:
(§3) Administration of cyclodextrin (Sigma, H107) and VEGF-overexpressed neural stem cells was performed on a schedule as illustrated in FIG. 1. Specifically, NP-C mice or VEGFNP-C mice were subcutaneously injected with cyclodextrin by 4000 mg/kg from 1 week old. When the NP-C mice injected with the cyclodextrin were 4-week-old, a cannula was mounted in a subventricular zone (SVZ) for combined injection into the SVZ of the VEGF-overexpressed neural stem cells, and the VEGF-overexpressed neural stem cells (to 1×10^6 cell/3 ul) were injected into the SVZ twice a week. A cell injection rate was implanted at a flow rate of 0.3 μl/min.
(§4) The brain tissue (cortex or cerebellum) of a mouse was cut to a thickness of 50 μm using vibratome, and then cultured with anti-GFAP (rabbit, 1:500, DAKO) and anti-Calbindin (rabbit, 1:100, milipore). In addition, filipin staining (Polysciences, Inc.) was performed on tissues of each organ from the mouse to confirm the accumulation degree of cholesterol. Cortex, cerebellum, liver, lung, kidney, and spleen sites were analyzed using a laser scanning confocal microscope or an Olympus BX51 microscope equipped with Fluoview SV1000 imaging software (Olympus FV1000, Japan). A percentage of an area of a stained area to an area of total tissues was quantified using Metamorph software (Molecular Devices). […]

Assay [3] deals with NP-C mice. The experiment in a line: Lipid accumulation (sphingosine, sphingomyelin) in cortex, cerebellum and organs, UPLC. It is filed as in vivo. Particulars: VEGFNP-C mice, 10-week-old. Here is the method: as §3
The cortex, the cerebellum, and organs (liver, lung, kidney, spleen, etc.) of each mouse were extracted, added with a homogeneous buffer solution containing 50 mM HEPES (Invitrogen), a 150 mM sodium chloride solution (NaCl) (Sigma), 0.2% Igepal CA-630 (Sigma), and a protease inhibitor (Milipore), homogenized using a homogenizer, and then centrifuged at 13,000 rpm for 10 minutes. After 10 minutes, additional centrifugation was performed at 13,000 rpm for 30 minutes. […] A dry lipid extract obtained above was resuspended in 0.2% Igepal CA-630 (Sigma), and then the concentration of each lipid was measured using a UPLC system. […]

In assay [4] the test system is NP-C mice. The experiment in a line: Change in weight of NP-C mice. Particulars: VEGFNP-C mice; cyclodextrin 4000 mg/kg once a week s.c.; compared to NP-C mice given cyclodextrin alone. It is filed as in vivo.
Description: as §1, §2

Assay [5] concerns NP-C mice. Put plainly: Cerebellar neural cells by Calbindin staining (Purkinje neuron). It is filed as in vivo. Particulars: VEGFNP-C mice; 10-week-old. Here is the method:
as §3, §4

The test system of assay [6] is NP-C mice. The experiment in a line: Cholesterol accumulation by Amplex red assay and Filipin staining. It is filed as in vivo. The note with it: VEGFNP-C mice; 10-week-old; cortex, cerebellum and organs. Here is the method:
as §3, §4

For assay [7], the system named is NP-C mice. The experiment in a line: Inflammatory response of the cortex by GFAP (astrocyte) staining. The format is in vivo. Particulars: 10-week-old. Here is the method: as §3, §4
Assay [8] concerns NP-C mice. The experiment in a line: Mobility by Rota-rod and Beam tests. It is filed as in vivo. Particulars: for each week age. Here is the method: as §3
In order to confirm the mobility of a mouse in each test group, Rota-rod and Beam tests were performed. In the Rota-rod test (Ugo Basile, Comerio, VA, Italy), a Rota-rod movement was performed three times or more at a rotation rate of 4 rpm using a machine equipped with a rod of a diameter of 3 cm which was appropriately processed for providing a grip, and then an endurance time of a test animal was measured in units of second and an average value thereof was recorded. […] In the Beam test, a mouse was placed on a starting point of a rod of a width of 6 mm or 12 mm and then a time taken to move to an end point was measured. […]
For orientation: In the rotarod test animals must keep their balance on a rotating rod.

The conditions of assay [9]: introduced into SVZ; Application No. 10-2017-0015676; cited from earlier work.

Take cyclodextrin: the survival rate entry in the assay on NP-C mice [1] was “significantly increased”. Besides, the “inflammatory response (GFAP: astrocyte) in the cerebellum” value is given as “alleviated to a certain level” with NP-C mice [2] (NP-C mice) and “more effectively alleviated” in the assay on NP-C mice [2] (VEGFNP-C mice). The “sphingosine accumulated in the cortex and the cerebellum” value in the assay on NP-C mice [3] is on record as “most effectively reduced”. Moreover, the sphingomyelin accumulation entry in the assay with NP-C mice [3] (liver, lung, kidney, spleen, cortex and cerebellum) is given as “most effectively reduced”. Also, the weight result in the assay on NP-C mice [4] is “significantly increased”. Besides, the “reduced neural cells (Calbindin: Purkinje neuron) in the cerebellum” value with NP-C mice [5] is “most efficiently increased”. Further, the accumulation of cholesterol result in the assay on NP-C mice [6] is reported as “more reduced”. Also, the results for the “inflammatory response (GFAP: astrocyte) in the cortex” value in the assay with NP-C mice [7] (NP-C mice) and in the assay with NP-C mice [7] (VEGFNP-C mice) were “somewhat alleviated” and “more effectively improved”, respectively. Further, the “mobility (Rota-rod and Beam tests)” value is recorded as “improved mobility compared to NP-C mice” in the assay on NP-C mice [8] (NP-C mice) and “most effective” in the assay with NP-C mice [8] (VEGFNP-C mice).

Take VEGF: the “medicinal effect by improvement of an SVZ environment” value in assay [9] is recorded as “could not be achieved”.
